For data set [1], the target named is T1, LFA-1 (CD18/CD11a) binding to ICAM-1 (Homo sapiens, UniProt P05107+P20701).
T1 construct: endogenous in cells; host or cells: LFA-1: endogenous, immunopurified from human JY or SKW3 cell lysates. sICAM-1: made in house, secreted from transfected CHO DUX cells
Nature of the data set: Assay to Determine Inhibition of LFA-1 Binding to ICAM-1. The note with it: immunoaffinity purified LFA-1 on plate-bound sICAM-1, 37° C. for 1 h, dose-response curve. The text has this:
This assay protocol is designed to study the direct antagonism, by a test compound, of the interaction of the CAM, ICAM-1 with the Leukointegrin CD18/CD11a (LFA-1).
After collection and neutralization of fractions from the TS2/4 column, samples are pooled and precleared with Protein G agarose.
An expression vector is created with a hamster dihydrofolate reductase gene, a neomycin-resistance marker, and the coding region of the sICAM-1 construct described above, along with the promoter, splice signals, and polyadenylation signal of the SV40 early region. The recombinant plasmid is transfected into CHO DUX cells using standard calcium phosphate methods. Cells are passaged in selective media (G418) and colonies secreting sICAM-1 are amplified using methotrexate. sICAM-1 is purified from serum-free media using traditional non-affinity chromatographic techniques, including ion exchange and size exclusion chromatography.
LFA-1 binding to ICAM-1 is monitored by first incubating sICAM-1 at 40 μg/mL in Dulbecco's phosphate buffered saline with calcium and magnesium, additional 2 mM MgCl2 and 0.1 mM PMSF (Diluting Buffer) in a 96-well plate for 30 min at room temperature. Plates are then blocked by the addition of 2% (w/v) bovine serum albumin in Diluting Buffer for 37° C. for 1 h. Blocking solution is removed from wells, and test compounds are diluted and then added followed by the addition of approximately 25 ng of immunoaffinity purified LFA-1. The LFA-1 is incubated in the presence of test compound and ICAM-1 at 37° C. for 1 h. Wells are washed 3 times with Diluting Buffer. The bound LFA-1 is detected by the addition of a polyclonal antibody directed against a peptide corresponding to the CD18 cytoplasmic tail in a 1:100 dilution with Diluting Buffer and 1% BSA and allowed to incubate for 45 min at 37° C. Wells are washed 3 times with Diluting Buffer and the bound polyclonal antibody is detected by the addition of a 1:4000 dilution of horse radish peroxidase conjugated to goat immunoglobulin directed against rabbit immunoglobulin. This reagent is allowed to incubate for 20 min at 37° C., wells are washed as above and the substrate for the horse radish peroxidase is added to each well to develop a quantitative colorimetric signal proportional to the amount of LFA-1 bound to sICAM-1. […] The lack of the addition of LFA-1 to the binding assay is used as a background control for all samples. A dose-response curve is obtained for all test compounds.

What is called melting point is the temperature of the solid-liquid transition. The Kd is a measure of binding affinity in units of concentration. A higher Kd goes with weaker binding.

T1 sequence (P20701 26-1170): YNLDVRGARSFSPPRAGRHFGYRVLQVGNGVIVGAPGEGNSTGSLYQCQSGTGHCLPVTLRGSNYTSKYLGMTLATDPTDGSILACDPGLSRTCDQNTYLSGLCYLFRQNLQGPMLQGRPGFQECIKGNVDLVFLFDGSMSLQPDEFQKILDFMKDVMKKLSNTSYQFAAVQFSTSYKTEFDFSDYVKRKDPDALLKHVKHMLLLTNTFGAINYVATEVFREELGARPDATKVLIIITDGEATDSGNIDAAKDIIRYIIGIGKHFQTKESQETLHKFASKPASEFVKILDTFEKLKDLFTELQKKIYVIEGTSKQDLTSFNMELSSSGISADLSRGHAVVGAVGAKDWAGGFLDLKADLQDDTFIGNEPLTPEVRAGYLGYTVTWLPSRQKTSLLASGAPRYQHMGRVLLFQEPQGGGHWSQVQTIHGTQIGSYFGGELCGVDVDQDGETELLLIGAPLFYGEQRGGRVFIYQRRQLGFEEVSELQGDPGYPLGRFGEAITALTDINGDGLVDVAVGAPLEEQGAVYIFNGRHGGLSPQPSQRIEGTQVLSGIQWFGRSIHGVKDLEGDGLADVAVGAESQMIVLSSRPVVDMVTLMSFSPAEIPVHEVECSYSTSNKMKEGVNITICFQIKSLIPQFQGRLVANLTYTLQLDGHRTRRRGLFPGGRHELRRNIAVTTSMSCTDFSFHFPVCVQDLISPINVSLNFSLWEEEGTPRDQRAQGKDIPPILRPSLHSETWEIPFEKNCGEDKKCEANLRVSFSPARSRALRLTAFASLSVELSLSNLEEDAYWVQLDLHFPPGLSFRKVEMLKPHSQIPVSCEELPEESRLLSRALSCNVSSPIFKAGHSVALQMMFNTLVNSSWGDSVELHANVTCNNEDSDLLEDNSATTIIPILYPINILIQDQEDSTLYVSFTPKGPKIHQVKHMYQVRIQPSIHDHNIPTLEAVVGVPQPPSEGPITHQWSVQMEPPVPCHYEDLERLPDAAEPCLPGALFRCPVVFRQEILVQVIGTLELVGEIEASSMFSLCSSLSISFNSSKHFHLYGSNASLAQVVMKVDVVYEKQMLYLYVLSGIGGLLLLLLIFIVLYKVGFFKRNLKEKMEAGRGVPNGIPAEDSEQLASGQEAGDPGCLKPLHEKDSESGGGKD
T1 sequence (P05107 23-769): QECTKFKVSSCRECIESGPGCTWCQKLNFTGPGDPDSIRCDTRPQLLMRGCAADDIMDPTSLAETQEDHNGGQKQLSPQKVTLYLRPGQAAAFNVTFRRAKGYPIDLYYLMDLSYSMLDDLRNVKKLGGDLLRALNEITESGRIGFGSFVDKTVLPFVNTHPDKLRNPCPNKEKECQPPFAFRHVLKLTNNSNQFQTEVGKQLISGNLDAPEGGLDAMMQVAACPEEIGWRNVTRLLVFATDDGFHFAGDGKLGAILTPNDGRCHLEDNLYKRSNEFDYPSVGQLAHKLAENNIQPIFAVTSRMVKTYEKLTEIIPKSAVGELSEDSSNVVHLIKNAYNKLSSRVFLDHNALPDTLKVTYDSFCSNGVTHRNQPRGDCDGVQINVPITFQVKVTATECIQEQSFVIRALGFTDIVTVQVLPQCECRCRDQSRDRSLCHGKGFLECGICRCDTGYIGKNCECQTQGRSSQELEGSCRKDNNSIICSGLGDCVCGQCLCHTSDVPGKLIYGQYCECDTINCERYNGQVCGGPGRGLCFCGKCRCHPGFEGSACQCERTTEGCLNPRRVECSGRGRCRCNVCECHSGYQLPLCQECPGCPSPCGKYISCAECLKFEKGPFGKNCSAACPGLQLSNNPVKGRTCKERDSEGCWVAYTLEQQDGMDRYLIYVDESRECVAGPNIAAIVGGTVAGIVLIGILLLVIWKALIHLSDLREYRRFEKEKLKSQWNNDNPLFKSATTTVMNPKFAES

The compound `O=C1C(Cc2ccccc2)c2ccccc2N1c1cc(Cl)cc(Cl)c1` (centres unmarked) [Example 15, 3-benzyl-1-(3,5-dichlorophenyl)-1,3-dihydroindol-2-one] displayed a melting point of 109 to 111 °C. The same compound registered a dissociation constant Kd in data set [1] of 4970 nM.

With `CC1(Cc2ccc(Br)cc2)C(=O)N(c2cc(Cl)cc(Cl)c2)c2ccccc21` (centres unmarked) [Example 2, 3-(4-Bromobenzyl)-1-(3,5-dichlorophenyl)-3-methyl-1,3-dihydro-indol-2-one], in data set [1], the equilibrium dissociation constant (Kd) was over 10000 nM.

The compound `O=C1C(Cc2ccc(Br)cc2)c2cc(F)ccc2N1c1cc(Cl)cc(Cl)c1` (centres unmarked) [Example 7, 3-(4-bromobenzyl)-1-(3,5-dichlorophenyl)-5-fluoro-1,3-dihydroindol-2-one] returned a melting point of 178 to 179 °C. Moreover, in data set [1], the dissociation constant Kd turned out to be 2710 nM.

Take `COc1cccc2c1C(Cc1cccc(Br)c1)C(=O)N2c1cc(Cl)cc(Cl)c1` (centres unmarked) [Example 10, 3-(3-bromobenzyl)-1-(3,5-dichlorophenyl)-4-methoxy-1,3-dihydroindol-2-one]: the melting point fell in the range of 142 to 144 °C. For the same compound, in data set [1], binding was put at a Kd of 1080 nM.

The compound `O=C1C(Cc2ccccc2)c2c(O)cccc2N1c1cc(Cl)cc(Cl)c1` (centres unmarked) [Example 12, 3-benzyl-1-(3,5-dichlorophenyl)-4-hydroxy-1,3-dihydroindol-2-one] registered a melting point of 181 to 185 °C. Besides, in data set [1], the dissociation constant (Kd) stood at 1310 nM.

Compound `CC1(Cc2ccccc2)C(=O)N(c2cc(Cl)cc(Cl)c2)c2cccc(O)c21` (centres unmarked) [Example 16, 3-benzyl-1-(3,5-dichlorophenyl)-4-hydroxy-3-methyl-1,3-dihydroindol-2-one] yielded a melting point of 165 to 166.5 °C. The Kd in data set [1] amounted to 1440 nM.

`CC1(Cc2ccc(Br)cc2)C(=O)N(c2cc(Cl)cc(Cl)c2)c2ncccc21` (centres unmarked) [Example 3, 3-(4-Bromobenzyl)-1-(3,5-dichlorophenyl)-3-methyl-1,3-dihydropyrrolo[2,3-b]pyridin-2-one]: in data set [1], the affinity, expressed as Kd, was 375 nM.

`O=C1C(Cc2ccc(Br)cc2)c2ccccc2N1c1cc(Cl)cc(Cl)c1` (centres unmarked) [Example 1, 3-(4-Bromobenzyl)-1-(3,5-dichlorophenyl)-1,3-dihydroindol-2-one] had a melting point of 139 to 142 °C. In data set [1], the dissociation constant Kd is over 10000 nM.

Regarding `CC1(Cc2ccc(C#N)cc2)C(=O)N(c2cc(Cl)cc(Cl)c2)c2ncccc21` (centres unmarked) [Example 5, 3-(4-cyanobenzyl)-1-(3,5-dichlorophenyl)-3-methyl-1,3-dihydropyrrolo[2,3-b]pyridin-2-one], binding in data set [1] was characterised by a dissociation constant (Kd) of 3530 nM.

Turning to `O=C1C(Cc2ccccc2)c2cc(O)ccc2N1c1cc(Cl)cc(Cl)c1` (centres unmarked) [Example 14, 3-benzyl-1-(3,5-dichlorophenyl)-5-hydroxy-1,3-dihydroindol-2-one], the melting point was in the range of 232 to 235 °C. The same compound showed a dissociation constant Kd in data set [1] of over 10000 nM.

For the compound `CC1(Cc2cccc(Br)c2)C(=O)N(c2cc(Cl)cc(Cl)c2)c2cccc(O)c21` (centres unmarked) [Example 11, 3-(3-bromobenzyl)-1-(3,5-dichlorophenyl)-4-hydroxy-3-methyl-1,3-dihydroindol-2-one], the melting point lay in the range of 225 to 227 °C. Moreover, in data set [1], the dissociation constant (Kd) was determined as 2540 nM.

The compound `O=C1C(Cc2ccc(Br)cc2)c2c(O)cccc2N1c1cc(Cl)cc(Cl)c1` (centres unmarked) [Example 17, 3-(4-bromobenzyl)-1-(3,5-dichlorophenyl)-4-hydroxy-1,3-dihydroindol-2-one] gave a melting point of 203 to 208 °C. This compound also gave an equilibrium dissociation constant (Kd) in data set [1] of 917 nM.

Regarding `O=C(O)c1ccc2c(c1)N(c1cc(Cl)cc(Cl)c1)C(=O)C2Cc1ccc(Br)cc1` (centres unmarked) [Example 8, 3-(4-bromobenzyl)-1-(3,5-dichlorophenyl)-1,3-dihydroindol-2-one-6-carboxylic acid], the melting point fell in the range of 264 to 266 °C. Also, the affinity in data set [1], expressed as Kd, was 4890 nM.

On to `COc1cccc2c1C(Cc1ccccc1)C(=O)N2c1cc(Cl)cc(Cl)c1` (centres unmarked) [Example 9, 3-benzyl-1-(3,5-dichlorophenyl)-4-methoxy-1,3-dihydroindol-2-one], for which the melting point lay in the range of 138 to 140 °C. This compound had a Kd in data set [1] of 705 nM.

In the case of `CC1(Cc2ccc(Br)cc2)C(=O)N(c2cc(Cl)cc(Cl)c2)c2cccc(O)c21` (centres unmarked) [Example 6, 3-(4-bromobenzyl)-1-(3,5-dichlorophenyl)-4-hydroxy-3-methyl-1,3-dihydroindol-2-one], the melting point fell in the range of 225 to 227 °C. The same compound came in with a dissociation constant Kd in data set [1] of 1790 nM.

The compound `COc1ccc2c(c1)C(Cc1ccccc1)C(=O)N2c1cc(Cl)cc(Cl)c1` (centres unmarked) [Example 13, 3-benzyl-1-(3,5-dichlorophenyl)-5-methoxy-1,3-dihydroindol-2-one] had a melting point of 118 to 119 °C. In addition, the Kd in data set [1] was over 10000 nM.

Values taken from patent publication US6414153B1, “1-phenylpydrrolidin-2-ones and -thiones and 1-(4-pyridyl)pydrrolidin-2-ones and -thiones which are useful in the treatment of inflammatory disease” (Boehringer Ingelheim Pharmaceuticals, Inc., priority 1999, dated 2002).
